Measurements as given in patent US8388931B2, “99m Tc-labeled triphenylphosphonium derivative contrasting agents and molecular probes for early detection and imaging of breast tumors” (priority 2008, dated 2013).

Key:
[1] = Comparative study: myocardial and hepatic uptake of 99mTc-MIBI versus 99mTc-Mito10-MAG3; type: in vivo, rats; conditions: rat, in vivo
Method: (§1) ^99mTc-MIBI of clinical formulation was purchased from Bristol Myers Squibb. […] Dynamic images were acquired in identical fashion following 99mTc-MIBI injection.
In a comparative study, the myocardial uptake of ^99mTc-MIBI peaked at 2.70±0.4% ID/g within minutes after injection, and remained above 2.41±0.3% ID/g for at least 90 min. Comparatively, the myocardial uptake level of ^99mTc-Mito10-MAG 3 is 10, 40, and 120 fold lower than the uptake level of ^99mTc-MIBI at 3, 10 and 30 min after injection. The hepatic uptake of ^99mTc-MIBI was at 0.37±0.14% ID/g at 30 min after injection.

[2] = tested on: DMBA-induced breast carcinoma; test: In vivo gamma camera imaging of DMBA-induced breast carcinoma in rats; design: species or system rats (female Sprague Dawley); conditions: longitudinal experiment, at the time of detection
Method: The animal protocol was approved by institutional IACUC review and followed NIH guidelines. The rat model of DMBA-induced breast carcinoma was used.
As an initial feasibility study, rats were induced with 65 mg/kg DMBA dissolved in sesame oil via a single oral gavage to the stomach. […] Static images were acquired on a GE XRT gamma camera using a high-resolution parallel-hole collimator, 512×512 matrix size, 22.5×22.5 cm field of view, 140±15 keV energy window, 100 k counts. Unexpectedly, apart from the established palpable carcinomas, additional small (millimeter size) tumors were discovered by this imaging technique in the same animals. This finding promoted a longitudinal study to investigate the early detection of neoplastic growth using ^99mTc-Mito10-MAG3.
Six 48-day-old female rats were injected with 65 mg/kg DMBA. At each week after DMBA induction, the rats were imaged using the following protocol. Each rat was anesthetized with 1.6% isoflurane in room air supplemented with oxygen. […] Dynamic images were continuously acquired at one frame per min for 90 min using the imaging parameters set forth hereinabove. The weekly imaging regiment was continued for all six rats until palpable tumors became detectable, which typically takes place between seven to nine weeks after the administration of DMBA. Due to the relatively short physical half-life of ^99mTc (6 hr), no residual signal, therefore, no cross-contamination is detectable from the previous injection the week before.
as §1
The female Sprague Dawley rats have six pairs of mammary glands, among which glands a and b are away from the hepatic/gastrointestinal region. (FIG. 9, Panel A). Since the typical biodistribution of a lipophilic radiopharmaceutical in the abdominal region precludes reliable imaging of breast tissues below the diaphragm, mammary glands shown in Panels C, D, E and F were excluded from the data analysis. This exclusion also was based on the fact that such spatial distribution of mammary glands is irrelevant to that of the human anatomy.
Imaging data analysis was carried out using an inbuilt software, by carefully drawing a region of interest (ROI) on the tumor site to determine the radioactivity counts in the ROI. […] Radioactivity counts were determined in each ROI. Tumor-to-normal and tumor-to-muscle ratios were calculated as the count ratio between the two ROIs.
The rats were sacrificed by CO2 asphyxiation and the number and location of the mammary tumors were recorded at necropsy. The tumors were dissected, with the diameter and weight measured and documented. […]

peak myocardial uptake [1]: 2.70±0.4 % ID/g
SMILES: [99Tc].[C-]#[N+]CC(C)(C)OC.[C-]#[N+]CC(C)(C)OC.[C-]#[N+]CC(C)(C)OC.[C-]#[N+]CC(C)(C)OC.[C-]#[N+]CC(C)(C)OC.[C-]#[N+]CC(C)(C)OC [^99mTc-MIBI, ^99mTc-methoxyisobutylisonitrile, reference compound]
tumor-to-normal ratio ([2]; ROI count ratio tumor vs contralateral normal mammary gland): 2.04±0.49
tumor-to-muscle ratio ([2]; ROI count ratio tumor vs thigh muscle): 5.10±0.31
